# According to ChEMBL document CHEMBL1201862, “PubChem BioAssay data set” (2004):
#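 The compound was tested at five concentrations on cells cultured in 96-well plates, with a 48-hour exposure period. GI50: concentration for 50% inhibition of growth.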 Calls of active or inactive are those of the source. Rule as the data show it: active = GI50 up to about 1.1 µM and inactive = higher.
# Tests used:
# Assay in all cases: DTP human tumour cell line panel, 48 h
# [1] = test system: A498
# [2] = test system: HCT-15
# [3] = test system: UACC-257
# [4] = test system: KM12
# [5] = test system: HCT-116
# [6] = test system: HCC 2998
# [7] = test system: LOX IMVI
# [8] = test system: SR
# [9] = test system: SK-MEL-28
# [10] = test system: KM-20L2
# [11] = test system: DMS-273
# [12] = test system: SNB-78
# [13] = test system: NCI-H226
# [14] = test system: SNB-19
# [15] = test system: DLD-1
# [16] = test system: SK-MEL-5
# [17] = test system: UACC-62
# [18] = test system: HOP-18
# [19] = test system: OVCAR-5
# [20] = test system: SW-620
# [21] = test system: NCI-H23
# [22] = test system: SF-295
# [23] = test system: SF-539
# [24] = test system: OVCAR-8
# [25] = test system: EKVX
# [26] = test system: 786-0
# [27] = test system: M14
# [28] = test system: HOP-62
# [29] = test system: SN12C
# [30] = test system: Malme-3M
# [31] = test system: ACHN
# [32] = test system: OVCAR-4
# [33] = test system: HT-29
# [34] = test system: XF498
# [35] = test system: OVCAR-3
# [36] = test system: A549
# [37] = test system: LXFL 529
# [38] = test system: UO-31
# [39] = test system: U-251
# [40] = test system: TK-10
# [41] = test system: NCI-H522
# [42] = test system: MOLT-4
# [43] = test system: COLO 205
# [44] = test system: HL-60
# [45] = test system: M19-MEL
# [46] = test system: SK-OV-3
# [47] = test system: CCRF-CEM
# [48] = test system: RXF 393
# [49] = test system: RPMI-8226
# [50] = test system: K562
# [51] = test system: NCI-H460
# [52] = test system: IGROV-1
# [53] = test system: SF-268
# [54] = test system: SNB-75
# [55] = test system: DMS-114
# [56] = test system: CAKI-1
# [57] = test system: HOP-92
smiles,measurement,setting,value
O=C1C(CN2CCCCC2)CCCC1CN1CCCCC1 (stereo not given),GI50,[1],> 100 µM (inactive)
same,GI50,[2],14.2 µM
same,GI50,[3],24.9 µM (inactive)
same,GI50,[4],> 60.3 µM (inactive)
same,GI50,[5],14.5 µM (inactive)
same,GI50,[6],> 100 µM (inactive)
same,GI50,[7],25.5 µM (inactive)
same,GI50,[8],8.93 µM (inactive)
same,GI50,[9],13.7 µM (inactive)
same,GI50,[10],13.3 µM (inactive)
same,GI50,[11],29.6 µM (inactive)
same,GI50,[12],22.8 µM (inactive)
same,GI50,[13],> 100 µM (inactive)
same,GI50,[14],> 100 µM (inactive)
same,GI50,[15],15.9 µM (inactive)
same,GI50,[16],> 31.6 µM (inactive)
same,GI50,[17],> 40.6 µM (inactive)
same,GI50,[18],14.7 µM (inactive)
same,GI50,[19],> 59 µM (inactive)
same,GI50,[20],9.89 µM (inactive)
same,GI50,[21],> 45.1 µM (inactive)
same,GI50,[22],> 100 µM (inactive)
same,GI50,[23],> 43.2 µM (inactive)
same,GI50,[24],14.9 µM (inactive)
same,GI50,[25],19.9 µM (inactive)
same,GI50,[26],7.29 µM (inactive)
same,GI50,[27],32.3 µM (inactive)
same,GI50,[28],> 100 µM (inactive)
same,GI50,[29],26.2 µM (inactive)
same,GI50,[30],5.82 µM (inactive)
same,GI50,[31],19.6 µM (inactive)
same,GI50,[32],> 10 µM (inactive)
same,GI50,[33],18.8 µM (inactive)
same,GI50,[34],18.4 µM (inactive)
same,GI50,[35],17.1 µM (inactive)
same,GI50,[36],> 100 µM (inactive)
same,GI50,[37],15.6 µM (inactive)
same,GI50,[38],> 42.2 µM (inactive)
CN(C)CC/C(=N\Nc1ccc(Cl)c(Cl)c1)c1ccccc1,GI50,[1],2.81 µM (inactive)
same,GI50,[2],1.98 µM
same,GI50,[3],3 µM (inactive)
same,GI50,[4],2.05 µM (inactive)
same,GI50,[5],1.73 µM (inactive)
same,GI50,[39],1.78 µM (inactive)
same,GI50,[7],1.69 µM (inactive)
same,GI50,[40],1.98 µM (inactive)
same,GI50,[8],2.13 µM (inactive)
same,GI50,[9],2.52 µM (inactive)
same,GI50,[10],1.74 µM (inactive)
same,GI50,[11],1.75 µM (inactive)
same,GI50,[12],2.4 µM (inactive)
same,GI50,[41],2.16 µM (inactive)
same,GI50,[14],3.49 µM (inactive)
same,GI50,[42],2.17 µM (inactive)
same,GI50,[43],1.77 µM (inactive)
same,GI50,[15],3.39 µM (inactive)
same,GI50,[16],1.84 µM (inactive)
same,GI50,[17],1.95 µM (inactive)
same,GI50,[44],2.29 µM (inactive)
same,GI50,[18],1.52 µM (inactive)
same,GI50,[19],2.56 µM (inactive)
same,GI50,[20],1.72 µM (inactive)
same,GI50,[21],1.84 µM (inactive)
same,GI50,[22],1.9 µM (inactive)
same,GI50,[23],1.82 µM (inactive)
same,GI50,[24],1.87 µM (inactive)
same,GI50,[45],1.89 µM (inactive)
same,GI50,[46],3.72 µM (inactive)
same,GI50,[25],1.82 µM (inactive)
same,GI50,[47],2.11 µM (inactive)
same,GI50,[26],1.71 µM (inactive)
same,GI50,[48],2.55 µM (inactive)
same,GI50,[49],2.31 µM (inactive)
same,GI50,[50],1.93 µM (inactive)
same,GI50,[28],2.4 µM (inactive)
same,GI50,[29],2.14 µM (inactive)
same,GI50,[30],3.24 µM (inactive)
same,GI50,[31],1.69 µM (inactive)
same,GI50,[32],2.58 µM (inactive)
same,GI50,[51],1.85 µM (inactive)
same,GI50,[33],1.96 µM (inactive)
same,GI50,[35],2.8 µM (inactive)
same,GI50,[52],2.18 µM (inactive)
same,GI50,[36],1.96 µM (inactive)
same,GI50,[37],1.52 µM (inactive)
same,GI50,[38],1.45 µM (inactive)
same,GI50,[53],1.79 µM (inactive)
same,GI50,[54],2.4 µM (inactive)
same,GI50,[55],1.83 µM (inactive)
COC(=O)C1Cc2c([nH]c3ccccc23)C=N1 (stereo not given),GI50,[1],> 100 µM (inactive)
same,GI50,[2],> 100 µM
same,GI50,[3],> 100 µM (inactive)
same,GI50,[4],94.2 µM (inactive)
same,GI50,[5],> 100 µM (inactive)
same,GI50,[6],> 100 µM (inactive)
same,GI50,[39],> 100 µM (inactive)
same,GI50,[7],51.8 µM (inactive)
same,GI50,[40],59.3 µM (inactive)
same,GI50,[8],> 100 µM (inactive)
same,GI50,[9],> 100 µM (inactive)
same,GI50,[56],> 100 µM (inactive)
same,GI50,[10],> 100 µM (inactive)
same,GI50,[11],> 100 µM (inactive)
same,GI50,[12],> 100 µM (inactive)
same,GI50,[41],> 100 µM (inactive)
same,GI50,[13],> 100 µM (inactive)
same,GI50,[14],> 100 µM (inactive)
same,GI50,[42],> 100 µM (inactive)
same,GI50,[43],> 100 µM (inactive)
same,GI50,[15],> 100 µM (inactive)
same,GI50,[16],> 100 µM (inactive)
same,GI50,[17],> 100 µM (inactive)
same,GI50,[44],> 100 µM (inactive)
same,GI50,[18],> 100 µM (inactive)
same,GI50,[19],> 100 µM (inactive)
same,GI50,[20],> 100 µM (inactive)
same,GI50,[21],> 100 µM (inactive)
same,GI50,[22],> 100 µM (inactive)
same,GI50,[23],> 100 µM (inactive)
same,GI50,[24],> 100 µM (inactive)
same,GI50,[45],74.8 µM (inactive)
same,GI50,[46],> 100 µM (inactive)
same,GI50,[25],> 100 µM (inactive)
same,GI50,[47],> 100 µM (inactive)
same,GI50,[26],> 100 µM (inactive)
same,GI50,[27],> 100 µM (inactive)
same,GI50,[48],> 100 µM (inactive)
same,GI50,[49],> 100 µM (inactive)
same,GI50,[50],> 100 µM (inactive)
same,GI50,[28],> 100 µM (inactive)
same,GI50,[29],> 100 µM (inactive)
same,GI50,[30],> 100 µM (inactive)
same,GI50,[31],> 100 µM (inactive)
same,GI50,[32],> 100 µM (inactive)
same,GI50,[51],> 100 µM (inactive)
same,GI50,[33],> 100 µM (inactive)
same,GI50,[35],> 100 µM (inactive)
same,GI50,[52],> 100 µM (inactive)
same,GI50,[36],> 100 µM (inactive)
same,GI50,[37],> 100 µM (inactive)
same,GI50,[38],> 100 µM (inactive)
same,GI50,[53],> 100 µM (inactive)
same,GI50,[54],60.8 µM (inactive)
same,GI50,[57],> 100 µM (inactive)
same,GI50,[55],> 100 µM (inactive)
